What was measured:
[1] = system: E. globulus wild-type (tissue culture); experiment: Rooting of tissue-culture shoots planted to supporter infiltrated with rooting medium containing oxidized glutathione; type: in vivo, Eucalyptus globulus; conditions: for Rooting rate (%): 27 test pieces; for Number of rooted shoots: of 27 test pieces
From the text: A foliage (shoot) grown to have a length of 2 cm to 5 cm was cut from a multiple shoot induced from a wild-type Eucalyptus globulus (hereinafter, abbreviated simply as an “E. globulus”). Inducing the multiple shoot followed a method described in Japanese Patent Application Publication, Tokukaihei, No. 8-228621 A. Specifically, a tissue (terminal bud and axillary bud) was collected from E. globulus (wild type), and the tissue thus collected was subjected to surface disinfection by immersing the tissue for twenty minutes in an sodium hypochlorite aqueous solution containing an amount of available chlorine of 1%. Then, the tissue which had been subjected to the surface disinfection was washed by sterilized water and was planted to a solid medium (MS medium containing sucrose of […], BA of 0.2 mg/L, and gellan gum of […]), and its bud was opened. Within three and four weeks after the culturing of the foliage was started, the culturing of the foliage was subcultured in a medium having a composition identical with that described above. […] Note that the foliages from the multiple shoot was grown in a medium having the composition identical with that used for forming the multiple shoot under the condition identical with that used for forming the multiple shoot.
(§1) A base of the shoot thus obtained was planted to a foaming phenolic resin porous supporter (Manufactured by Smithers-Oasis Company; Product name: Oasis). […] The base of the shoot was cultured for two months in carbon dioxide gas of 1000 ppm at a temperature of 25° C. under irradiation of red light having photosynthesis photon flux density of 51.3 μmol/m^2/S and having a wavelength component of 650 nm to 670 nm to a wavelength component of 450 nm to 470 nm at a ratio of 8.2:1.8. The culturing was carried out with a culture container, which was a cube container (maximum size of about 10 cm to 11.5 cm in length×10 cm to 11.5 cm in width×10.0 cm in height) having a shape whose bulge was slightly protruded. […] Carbon dioxide gas outside the culture container was allowed to enter the culture container through this carbon dioxide gas permeable membrane covering the opening. Accordingly, carbon dioxide gas concentration inside the culture container was about 1000 ppm due to the permeation of the carbon dioxide gas through the film covering the opening of the culture container. The culture container was irradiated with red light by use of a light irradiation device (Product name: CCFL unit, maker's name: Nippon Medical& Chemical Instruments CO., LTD.). Further, humidity in the culture container is adjusted by sealing the culture container with Parafilm.
(§2) Nine shoots were planted per culture container. A rooting rate was calculated from the number of test pieces of the shoot and the number of shoots (the number of rooted shoots) which had been rooted after the foliage was cultured for two months.

E. uro-grandis B = experiment: Rooting of cuttings, oxidized glutathione solution sprayed to phylloplane; type: in vivo, crossbreed of eucalyptus urophylla and eucalyptus grandis; conditions: for Rooting rate (%): 88 test pieces; for Number of rooted shoots: of 88 test pieces
Experimental: Oxidized glutathione was applied to a phylloplane of a cutting. That is, the cutting was prepared in the same way as that in Example 5, except that a mother tree of the cutting was E. uro-grandis (Line name: B). Then a base of the cutting was planted to the supporter similar to Example 5. An oxidized glutathione solution was prepared in the same way as Example 5, and, immediately after the base was planted, the oxidized glutathione solution was sprayed to the phylloplane in the form of a mist by use of a spray etc. A spray amount of the glutathione solution was set to about 1.1 ml per shoot. A breeding condition after planting the shoot was similar to Example 5, and a rooting rate was calculated in the same way as Example 5.
A seedling was bred in the same way as Example 8, except that a solution having an oxidized glutathione concentration of 500 mg/L was used as the oxidized glutathione solution.
A seedling was bred in the same way as Example 8, except that a solution having an oxidized glutathione concentration of 1000 mg/L was used as the oxidized glutathione solution.

E. globulus (Clone B) = experiment: Rooting of shoots with wounded base in rooting medium containing oxidized glutathione; type: in vivo, Eucalyptus globulus; conditions: for Rooting rate (%): 9 test pieces; for Number of rooted shoots: of 9 test pieces
Experimental: as §1, §2
The culture was carried out in the same way as Example 1, except that genetically modified E. globulus (Line name: Clone B) was used and a base of the shoot was wounded by a pair of scissors. Note that the base of the shoot (the aforementioned cross-sectional surface) was cut in two directions orthogonal to each other by use of a pair of scissors, and therefore the base was wounded so as to have a cross-shaped wound seen from a front direction.

E. globulus (Clone C) = experiment: as above; type: in vivo, Eucalyptus globulus; conditions: Example 16: 50 mg/L in medium
Experimental: as §1, §2

E. globulus (Clone D) = experiment: as above; type: in vivo, Eucalyptus globulus; conditions: Example 17: 50 mg/L in medium
Experimental: as §1, §2

E. globulus (Clone E) = experiment: as above; type: in vivo, Eucalyptus globulus; conditions: Example 18: 50 mg/L in medium
Experimental: as §1, §2

[2] = system: E. globulus (wild-type F); experiment: as above; type: in vivo, Eucalyptus globulus; conditions: Example 19: 50 mg/L in medium
Experimental: as §1, §2

E. globulus (Clone G) = experiment: Rooting of shoots with wounded base, line whose rooting is extremely difficult; type: in vivo, Eucalyptus globulus; conditions: Example 20: 50 mg/L in medium
Experimental: as §1, §2

E. globulus (Clone H) = experiment: as above; type: in vivo, Eucalyptus globulus; conditions: Example 21: 50 mg/L in medium
Experimental: as §1, §2

E. globulus (Clone I) = experiment: as above; type: in vivo, Eucalyptus globulus; conditions: Example 22: 50 mg/L in medium
Experimental: as §1, §2

[3] = Example 2: 50 mg/L in medium, two months
[4] = Example 3: 75 mg/L in medium, two months
[5] = Example 9: 500 mg/L, sprayed to phylloplane
[6] = Example 10: 1000 mg/L, sprayed to phylloplane

Substance: oxidized glutathione
- Rooting rate (%) ([1]; Example 1: 25 mg/L in medium, adding glutathione to rooting medium (with STS, ascorbic acid, IBA), cultured two months): 74.1%
- Number of rooted shoots ([1]; Example 1: 25 mg/L in medium, two months): 20
- Rooting rate (%) [1, 3]: 85.2%
- Number of rooted shoots [1, 3]: 23
- Rooting rate (%) [1, 4]: 51.9%
- Number of rooted shoots [1, 4]: 14
- Rooting rate (%) (E. uro-grandis B; Example 8: 200 mg/L, sprayed to phylloplane (about 1.1 ml per shoot), three weeks): 54.5%
- Number of rooted shoots (E. uro-grandis B; Example 8: 200 mg/L, sprayed to phylloplane): 48
- Rooting rate (%) (E. uro-grandis B; [5]): 59.1%
- Number of rooted shoots (E. uro-grandis B; [5]): 52
- Rooting rate (%) (E. uro-grandis B; [6]): 60.2%
- Number of rooted shoots (E. uro-grandis B; [6]): 53
- Rooting rate (%) (E. globulus (Clone B); Example 14: 25 mg/L in medium): 88.9%
- Number of rooted shoots (E. globulus (Clone B); Example 14: 25 mg/L in medium): 8
- Rooting rate (%) (E. globulus (Clone B); Example 15: 75 mg/L in medium): 77.8%
- Number of rooted shoots (E. globulus (Clone B); Example 15: 75 mg/L in medium): 7
- Rooting rate (%) (E. globulus (Clone C); 27 test pieces): 96.3%
- Number of rooted shoots (E. globulus (Clone C); of 27 test pieces): 26
- Rooting rate (%) (E. globulus (Clone D); 18 test pieces): 88.9%
- Number of rooted shoots (E. globulus (Clone D); of 18 test pieces): 16
- Rooting rate (%) (E. globulus (Clone E); 27 test pieces): 88.9%
- Number of rooted shoots (E. globulus (Clone E); of 27 test pieces): 24
- Rooting rate (%) ([2]; 18 test pieces): 100.0%
- Number of rooted shoots ([2]; of 18 test pieces): 18
- Rooting rate (%) (E. globulus (Clone G); 18 test pieces): 33.3%
- Number of rooted shoots (E. globulus (Clone G); of 18 test pieces): 6
- Rooting rate (%) (E. globulus (Clone H); 5 test pieces): 40.0%
- Number of rooted shoots (E. globulus (Clone H); of 5 test pieces): 2
- Rooting rate (%) (E. globulus (Clone I); 5 test pieces): 20.0%
- Number of rooted shoots (E. globulus (Clone I); of 5 test pieces): 1

From patent US20140366440A1, “METHOD FOR PRODUCING CLONE SEEDLINGS” (OKAYAMA PREFECTURE, priority 2009, published 2014)
